Experimental data reported in article PMC3923439, “Anti-inflammatory properties of a novel peptide interleukin 1 receptor antagonist” (Journal of Neuroinflammation, 2014).
Positions of bridges follow the written chain, without caps; N, C: chain ends. Chains are numbered I, II in the order given. No end group written: not given here.

How the values were obtained:
IL-1RI–IL-1β binding = molecular target: T1, IL-1RI–IL-1β binding (Homo sapiens, UniProt P14778); test: SPR competition: binding of IL-1RI ectodomain to immobilized IL-1β in the presence of peptide; conditions: three experiments
T1 construct: purchased R&D Systems
T1 sequence (P14778 18-336 limits assumed): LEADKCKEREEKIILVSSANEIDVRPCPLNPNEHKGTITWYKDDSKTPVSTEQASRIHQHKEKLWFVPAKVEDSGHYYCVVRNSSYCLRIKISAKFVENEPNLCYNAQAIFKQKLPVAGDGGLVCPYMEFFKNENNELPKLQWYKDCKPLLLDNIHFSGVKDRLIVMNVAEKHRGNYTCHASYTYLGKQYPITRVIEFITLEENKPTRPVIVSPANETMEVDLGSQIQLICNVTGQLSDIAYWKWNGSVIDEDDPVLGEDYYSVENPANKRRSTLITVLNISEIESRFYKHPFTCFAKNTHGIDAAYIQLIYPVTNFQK
Protocol: (§1) The binding analysis was performed using a Biacore 2000 instrument (GE Healthcare Life Sciences) that contained 150 mM NaCl as running buffer at 25°C with 10 mM sodium phosphate (pH 7.4). The flow rate was 5 μl/min during immobilization. Ilantide peptide, IL-1β or IL-1Ra was immobilized on a CM4 sensor chip according to the manufacturer’s instructions, after which the recombinant ectodomain of IL-1RI (R&D Systems) was injected. The neural cell adhesion molecule (NCAM) immunoglobulin modules 1 and 2 (Ig1 and Ig2) were used as a negative control protein [9]. The data were analyzed using nonlinear curve-fitting with the manufacturer’s software.
Figure 2 Interaction between Ilantide, interleukin 1β, and interleukin 1 receptor antagonist and soluble IL-1 receptor type I. Binding was studied using surface plasmon resonance analysis. […] Binding is expressed as the response difference between the binding of IL-1 receptor type I (IL-1RI) to the sensor chip with the immobilized peptide, IL-1β, or IL-Ra and a blank sensor chip. […] The results from three experiments are expressed as mean RU ± SEM. **P < 0.01 and ***P < 0.001 compared with binding of IL-1RI alone to IL-1β (one-way analysis of variance followed by the Newman-Keuls post hoc test).

[1] = system: neonatal rat pancreatic islets; test: IL-1β-induced nitric oxide production (nitrite, Griess reagent); type: cell-based; conditions: nitrites in supernatants of the apoptosis experiments, four independent experiments
Protocol: For cell death detection, rat islets were incubated with 150 pg/ml IL-1β (BD Pharmingen, San Diego, CA, USA) alone or in combination with various concentrations of Ana and Ilantide for 24 hours at 37°C in humidified atmospheric air. Rat islet cell death was assessed by cell death detection ELISA (Roche, Lund, Sweden) as previously described. As a surrogate measure of nitric oxide production, Griess reagent (1:1 aqueous mixture of 0.1% naphthylethylenediamine hydrochloride and 1% sulfanilamide + 5% H3PO4) was mixed in a 1:1 ratio with 100 μl of supernatant samples to determine the nitrite content in supernatants from the cell death assays described above.
Figure 8 Effect of Ilantide on interleukin 1β-induced nitric oxide production. Anakinra (A) but none of the peptides, Ilantide-m (B) or Ilantide-t (C), inhibited interleukin 1β (IL-1β)-induced nitric oxide production. The results of four independent experiments are shown. *P < 0.05 and **P < 0.01 compared with cultures treated with IL-1 alone (one-way analysis of variance followed by Dunnett’s post hoc test).

[2] = system: HEK-Blue IL-6 cells (STAT3); test: IL-6-induced STAT3 activation, SEAP reporter; type: cell-based; conditions: 1.2 pM IL-6, 24 hours, SEAP read at 600 nm
Protocol: HEK-Blue IL-1β cells that contained an IL-1β-sensitive reporter (InvivoGen, San Diego, CA, USA) and HEK-Blue IL-6 cells that contained an IL-6-sensitive reporter (InvivoGen) were grown at 37°C with 5% CO2 in Dulbecco’s modified Eagle’s medium (DMEM) supplemented with 5% (vol/vol) fetal calf serum (FCS), 4.5 g/L glucose, 2 mM GlutaMAX medium, 100 U/ml penicillin, 100 μg/ml streptomycin (all obtained from Gibco BRL/Life Technologies, Taastrup, Denmark), 100 μg/ml zeocin, 200 μg/ml hygromycin and 100 μg/ml Normocin (all purchased from InvivoGen).
HEK-Blue IL-6 cells were grown as described above. IL-6 cells allow the monitoring of the activation of the signal transducer and activator of transcription 3 (STAT3) pathway specifically in response to IL-6. They express a STAT3-inducible SEAP reporter gene. For the STAT3 activation assay, the cells were treated with 1.2 pM IL-6 alone or together with various concentrations of Ilantide. TNF-α (1.2 pM) was added as a control ligand for both the NF-κB and STAT3 assays. After 24-hour incubation at 37°C, 150 μl of HEK-Blue cell supernatant were added to each well of a 96-well plate together with 50 μl of QUANTI-Blue (InvivoGen), incubated at 37°C in the dark for 40 minutes and measured in an ELISA reader at 600 nm to determine the expression level of the secreted SEAP.

ectodomain of IL-1RI = molecular target: T2, ectodomain of IL-1RI (Homo sapiens, UniProt P14778); test: Surface plasmon resonance binding of immobilized ligand to recombinant IL-1RI ectodomain; conditions: SPR, Biacore 2000, ligand immobilized on CM4 chip, IL-1RI ectodomain injected, 25°C, pH 7.4
T2 construct: the recombinant ectodomain of IL-1RI (R&D Systems) was injected; purchased R&D Systems
T2 sequence (P14778 18-336 limits assumed): T1 sequence (P14778 18-336 limits assumed)
Protocol: as §1

k d (ectodomain of IL-1RI)	Substance	Inhibition of binding between IL-1RI and IL-1β (IL-1RI–IL-1β binding)	Inhibition of IL-1β-induced nitric oxide production [1]	Inhibition of STAT3 activation induced by IL-6 [2]
–	I: SGRKSSKMQAKK-NH2 / II: SGRKSSKMQAK / III: SGRKSSKMQA / IV: SGRKSSKMQA (amide I:11-IV:C, I:12-II:C, II:11-III:C; C-terminus assumed) [Ilantide-t]	dose-dependently inhibited	none	did not inhibit
3.62 ± 0.65 × 10^-3 s^-1	IL-1Ra: recombinant interleukin 1 receptor antagonist purchased from R&D Systems	–	–	–
